How the values were obtained:
Assay in all cases: cells
COLO-741 = type: functional, cell-based; conditions: Homo sapiens
Description: SANGER: Inhibition of human COLO-741 cell growth in a cell viability assay.

CP50-MEL-B = type: functional, cell-based; conditions: Homo sapiens
Description: SANGER: Inhibition of human CP50-MEL-B cell growth in a cell viability assay.

Ca-Ski = type: functional, cell-based; conditions: Homo sapiens
Description: SANGER: Inhibition of human Ca-Ski cell growth in a cell viability assay.

DU-145 = type: functional, cell-based; conditions: Homo sapiens
Description: SANGER: Inhibition of human DU-145 cell growth in a cell viability assay.

FTC-133 = type: functional, cell-based; conditions: Homo sapiens
GAMG = type: functional, cell-based; conditions: Homo sapiens
Description: SANGER: Inhibition of human GAMG cell growth in a cell viability assay.

HCC1569 = type: functional, cell-based; conditions: Homo sapiens
Description: SANGER: Inhibition of human HCC1569 cell growth in a cell viability assay.

HCC1954 = type: functional, cell-based; conditions: Homo sapiens
Description: SANGER: Inhibition of human HCC1954 cell growth in a cell viability assay.

HCC38 = type: functional, cell-based; conditions: Homo sapiens
Description: SANGER: Inhibition of human HCC38 cell growth in a cell viability assay.

HLE = type: functional, cell-based; conditions: Homo sapiens
Description: SANGER: Inhibition of human HLE cell growth in a cell viability assay.

HN = type: functional, cell-based; conditions: Homo sapiens
Description: SANGER: Inhibition of human HN cell growth in a cell viability assay.

HOS = type: functional, cell-based; conditions: Homo sapiens
Description: SANGER: Inhibition of human HOS cell growth in a cell viability assay.

HuCCT-1 = type: functional, cell-based, HuCCT1; conditions: Homo sapiens
Description: SANGER: Inhibition of human HuCCT1 cell growth in a cell viability assay.

IGROV-1 = type: functional, cell-based; conditions: Homo sapiens
Description: SANGER: Inhibition of human IGROV-1 cell growth in a cell viability assay.

JEG-3 = type: functional, cell-based; conditions: Homo sapiens
Description: SANGER: Inhibition of human JEG-3 cell growth in a cell viability assay.

KYSE-150 cell line = type: functional, cell-based; conditions: Homo sapiens
Description: SANGER: Inhibition of human KYSE-150 cell growth in a cell viability assay.

MCF7 = type: functional, cell-based; conditions: Homo sapiens
Description: SANGER: Inhibition of human MCF7 cell growth in a cell viability assay.

MG-63 = type: functional, cell-based; conditions: Homo sapiens
Description: SANGER: Inhibition of human MG-63 cell growth in a cell viability assay.

NB7 = type: functional, cell-based, Homo sapiens; conditions: Homo sapiens, NB7
Description: SANGER: Inhibition of human NB7 cell growth in a cell viability assay.

NCI-H1623 = type: functional, cell-based; conditions: Homo sapiens
Description: SANGER: Inhibition of human NCI-H1623 cell growth in a cell viability assay.

NCI-H1793 = type: functional, cell-based; conditions: Homo sapiens
Description: SANGER: Inhibition of human NCI-H1793 cell growth in a cell viability assay.

NCI-H2030 = type: functional, cell-based; conditions: Homo sapiens
Description: SANGER: Inhibition of human NCI-H2030 cell growth in a cell viability assay.

NCI-H2228 = type: functional, cell-based; conditions: Homo sapiens
Description: SANGER: Inhibition of human NCI-H2228 cell growth in a cell viability assay.

NY = type: functional, cell-based; conditions: Homo sapiens
Description: SANGER: Inhibition of human NY cell growth in a cell viability assay.

OE19 = type: functional, cell-based; conditions: Homo sapiens
Description: SANGER: Inhibition of human OE19 cell growth in a cell viability assay.

OVCAR-3 = type: functional, cell-based; conditions: Homo sapiens
Description: SANGER: Inhibition of human OVCAR-3 cell growth in a cell viability assay.

PANC-03-27 = type: functional, cell-based; conditions: Homo sapiens
Description: SANGER: Inhibition of human PANC-03-27 cell growth in a cell viability assay.

PANC-08-13 = type: functional, cell-based; conditions: Homo sapiens
Description: SANGER: Inhibition of human PANC-08-13 cell growth in a cell viability assay.

RPMI-2650 = type: functional, cell-based; conditions: Homo sapiens
Description: SANGER: Inhibition of human RPMI-2650 cell growth in a cell viability assay.

SBC-5 = type: functional, cell-based; conditions: Homo sapiens
Description: SANGER: Inhibition of human SBC-5 cell growth in a cell viability assay.

SK-MEL-24 = type: functional, cell-based; conditions: Homo sapiens
Description: SANGER: Inhibition of human SK-MEL-24 cell growth in a cell viability assay.

SW1710 = type: functional, cell-based; conditions: Homo sapiens
Description: SANGER: Inhibition of human SW1710 cell growth in a cell viability assay.

SW48 = type: functional, cell-based; conditions: Homo sapiens
Description: SANGER: Inhibition of human SW48 cell growth in a cell viability assay.

SAOS-2 = type: functional, cell-based; conditions: Homo sapiens
Description: SANGER: Inhibition of human Saos-2 cell growth in a cell viability assay.

T47D = type: functional, cell-based; conditions: Homo sapiens
Description: SANGER: Inhibition of human T47D cell growth in a cell viability assay.

647-V = type: functional, cell-based; conditions: Homo sapiens
Description: SANGER: Inhibition of human 647-V cell growth in a cell viability assay.

786-0 = type: functional, cell-based; conditions: Homo sapiens
Description: SANGER: Inhibition of human 786-0 cell growth in a cell viability assay.

8305C = type: functional, cell-based; conditions: Homo sapiens
Description: SANGER: Inhibition of human 8305C cell growth in a cell viability assay.

BCPAP = type: functional, cell-based; conditions: Homo sapiens
Description: SANGER: Inhibition of human BCPAP cell growth in a cell viability assay.

BFTC-905 = type: functional, cell-based; conditions: Homo sapiens
Description: SANGER: Inhibition of human BFTC-905 cell growth in a cell viability assay.

BFTC-909 = type: functional, cell-based; conditions: Homo sapiens
Description: SANGER: Inhibition of human BFTC-909 cell growth in a cell viability assay.

CAL-12T = type: functional, cell-based; conditions: Homo sapiens
Description: SANGER: Inhibition of human CAL-12T cell growth in a cell viability assay.

CAL-51 = type: functional, cell-based; conditions: Homo sapiens
Description: SANGER: Inhibition of human CAL-51 cell growth in a cell viability assay.

U-118-MG = type: functional, cell-based; conditions: Homo sapiens
Description: SANGER: Inhibition of human U-118-MG cell growth in a cell viability assay.

UO-31 = type: functional, cell-based; conditions: Homo sapiens
Description: SANGER: Inhibition of human U031 cell growth in a cell viability assay.

CHL-1 = type: functional, cell-based; conditions: Homo sapiens
Description: SANGER: Inhibition of human CHL-1 cell growth in a cell viability assay.

CHP-212 = type: functional, cell-based; conditions: Homo sapiens
Description: SANGER: Inhibition of human CHP-212 cell growth in a cell viability assay.

COLO-678 = type: functional, cell-based; conditions: Homo sapiens
Description: SANGER: Inhibition of human COLO-678 cell growth in a cell viability assay.

## Cc1ccc(-n2nc(C(C)(C)C)cc2NC(=O)Nc2ccc(OCCN3CCOCC3)c3ccccc23)cc1 [DORAMAPIMOD]
COLO-741
  IC50: > 10 µM
CP50-MEL-B
  IC50: > 10 µM
Ca-Ski
  IC50: > 10 µM
DU-145
  IC50: 3.94 µM
FTC-133
  IC50: > 10 µM
GAMG
  IC50: > 10 µM
HCC1569
  IC50: > 10 µM
HCC1954
  IC50: > 10 µM
HCC38
  IC50: > 10 µM
HLE
  IC50: > 10 µM
HN
  IC50: > 10 µM
HOS
  IC50: > 10 µM
HuCCT-1
  IC50: > 10 µM
IGROV-1
  IC50: > 10 µM
JEG-3
  IC50: > 10 µM
KYSE-150 cell line
  IC50: > 10 µM
MCF7
  IC50: > 10 µM
MG-63
  IC50: > 10 µM
NB7
  IC50: > 10 µM
NCI-H1623
  IC50: > 10 µM
NCI-H1793
  IC50: > 10 µM
NCI-H2030
  IC50: > 10 µM
NCI-H2228
  IC50: > 10 µM
NY
  IC50: > 10 µM
OE19
  IC50: > 10 µM
OVCAR-3
  IC50: > 10 µM
PANC-03-27
  IC50: > 10 µM
PANC-08-13
  IC50: > 10 µM
RPMI-2650
  IC50: > 10 µM
SBC-5
  IC50: > 10 µM
SK-MEL-24
  IC50: > 10 µM
SW1710
  IC50: > 10 µM
SW48
  IC50: > 10 µM
SAOS-2
  IC50: > 10 µM
T47D
  IC50: > 10 µM
647-V
  IC50: > 10 µM
786-0
  IC50: > 10 µM
8305C
  IC50: > 10 µM
BCPAP
  IC50: > 10 µM
BFTC-905
  IC50: > 10 µM
BFTC-909
  IC50: > 10 µM
CAL-12T
  IC50: > 10 µM
CAL-51
  IC50: > 10 µM
U-118-MG
  IC50: > 10 µM
UO-31
  IC50: > 10 µM
CHL-1
  IC50: > 10 µM
CHP-212
  IC50: > 10 µM
COLO-678
  IC50: > 10 µM
